# Assay results as given in patent US12527782B2, “Use of hexokinase 2/mitochondria-detaching compounds for treating hexokinase-2 (HK2)-expressing cancers” (Vidac Pharma Ltd., priority 2016, dated 2026).
# pIC50: −log10 of the molar value. Like-named read-outs stand apart in the source and are kept apart here.
# Tests used:
# Head & Neck HNXF 908 = test: CFA, HNXF 908; type: cell-based, human; details: PDX/CFA
# Procedure: (§1) CFA was performed by Charles River Laboratories (Freiburg, Germany) in 96-well plate format according to a modified two-layer soft agar assay. The origin of the tumor xenografts has been described (Fiebig et al. 1989, incorporated herein by reference). The list of tumors used in this study is detailed in Table 1.
# [1] = system: Leukemia (BCLL) LEXFCM K-562; test: CFA, LEXFCM K-562; type: cell-based, human; details: Cell line/CFA
# Procedure: as §1
# [2] = system: Lung (SCLC) LXFS NCI-H727; test: CFA, LXFS NCI-H727; type: cell-based, human; details: Cell line/CFA
# Procedure: as §1
# Breast MAXF 1322 = test: CFA, MAXF 1322; type: cell-based, human; details: PDX/CFA
# Procedure: as §1
# [3] = system: Lymphoma (Non-Hodgkin) LYXFNH HH (CTCL cell line HH); test: CFA / 3D clonogenic assay, LYXFNH HH; type: cell-based, human; details: for pIC50: CTCL cell line HH
# Procedure: as §1
# The cell lines tested were from a large collection of patient-derived (PDX) and cell line-derived (CDX) human tumor xenografts growing subcutaneously in immunodeficient nude mice (Oncotest GmbH, a Charles River Division). The majority of the xenografts have been directly transplanted from patients and passaged in nude mice. The xenografts retain most of the characteristics of the parental patient tumors including histology and sensitivity to anti-cancer drugs, and efficacy tests in tumor-bearing nude mice largely replicate the response of the donor patient to standard anti-cancer drugs. The cell lines were from publicly available cell lines, including cell lines derived from solid tumors and hematological malignancies. In the clonogenic assay, the capacity of tumor cells for anchorage-independent growth was investigated as colony formation in soft agar in the presence and absence of test compounds. For the assay, tumor cells were harvested from in vitro culture, or tumor cell suspensions were prepared directly from human tumor xenografts growing in nude mice. The cell suspensions also contained tumor stem cells, which are believed to mediate the metastatic and infiltrative potential of a tumor. […]
# Formula C was investigated for antitumor potency and tumor type selectivity ex vivo in 11 human tumor models (5 tumor cell lines, 6 xenograft-derived cell suspensions) of various histotypes. Tests were carried out using a 3D clonogenic assay in 96-well format using an image based read-out.
# The clonogenic assay was carried out in a 96 well plate format using ultra low attachment plates. […] Cultures were incubated at 37° C. and 7.5% CO2 in a humidified atmosphere for 8 to 14 days and monitored closely for colony growth using an inverted microscope. […]
# Breast MAXF 857 = test: CFA, MAXF 857; type: cell-based, human; details: PDX/CFA
# Procedure: as §1
# [4] = system: Leukemia (AML) LEXFAM HL-60; test: CFA, LEXFAM HL-60; type: cell-based, human; details: Cell line/CFA
# Procedure: as §1
# [5] = system: Leukemia (ALL) LEXFAL MOLT-4; test: CFA, LEXFAL MOLT-4; type: cell-based, human; details: Cell line/CFA
# Procedure: as §1
# [6] = Skin irritation in naïve SKH-1 mice; type: in vivo, mouse; details: skin of naïve SKH-1 mice
# [7] = system: Lung (NSCLC, adeno) LXFA 1041; test: CFA, LXFA 1041; type: cell-based, human; details: PDX/CFA
# Procedure: as §1
# [8] = system: Leukemia (AML) LEXFAM KG-1a; test: CFA, LEXFAM KG-1a; type: cell-based, human; details: Cell line/CFA
# Procedure: as §1
# VDAC1/HK1 complex = molecular target: T1, VDAC1/HK1 complex (Homo sapiens, UniProt P19367); test: Microscale Thermophoresis (MST) dissociation of VDAC1/HK1 complex; type: binding; details: cell-free MST
# T1 construct: host or cells: E. coli (HK1); sheep liver mitochondria (VDAC1)
# Procedure: A431 (human skin SCC), HT-297.T (human AK), and HaCaT transformed normal keratinocyte cell lines were from ATCC (Manassas, VA) and were maintained in DMEM supplemented with 10% FCS, 4 mM L-Gln, 1 mM sodium pyruvate, 100 U/mL penicillin, 1 μg/mL streptomycin. Human HK1 and HK2 plasmids were purchased from Addgene (Cambridge, MA) and were purified from E. Coli. VDAC1 was purified from sheep liver mitochondria as described (Arbel et al. 2012, incorporated herein by reference). Human skin tissue microarray (SK208 and SK 805) were purchased from US Biomax Inc. (Rockville, MD).
# Studies were conducted on Nanotemper Monolith NT.115 (Munich, Germany). HK1 and HK2 were labeled using Monolith™ NT.115 Protein Labeling Kit BLUE-NHS. As a preliminary study to form the VDAC1-HK complexes, various concentrations of VDAC1 were added to 67 nM HK1 or 71 nM HK2. The preferred VDAC1 concentration was determined to be 1.5 μM. For dissociation studies, HKs were pre-incubated with VDAC1 for 10 minutes and various concentrations of Formula C were added for an additional 10 minutes. MST default parameters were used and analysis was with Nanotemper analysis software. […]
# The activity of Formula C in a cell-free assay was evaluated using Microscale Thermophoresis (MST) analysis, which is based on altered movement of a protein in a temperature gradient when bound to other molecules. […]
# T1 sequence (P19367 whole entry, one chain of several): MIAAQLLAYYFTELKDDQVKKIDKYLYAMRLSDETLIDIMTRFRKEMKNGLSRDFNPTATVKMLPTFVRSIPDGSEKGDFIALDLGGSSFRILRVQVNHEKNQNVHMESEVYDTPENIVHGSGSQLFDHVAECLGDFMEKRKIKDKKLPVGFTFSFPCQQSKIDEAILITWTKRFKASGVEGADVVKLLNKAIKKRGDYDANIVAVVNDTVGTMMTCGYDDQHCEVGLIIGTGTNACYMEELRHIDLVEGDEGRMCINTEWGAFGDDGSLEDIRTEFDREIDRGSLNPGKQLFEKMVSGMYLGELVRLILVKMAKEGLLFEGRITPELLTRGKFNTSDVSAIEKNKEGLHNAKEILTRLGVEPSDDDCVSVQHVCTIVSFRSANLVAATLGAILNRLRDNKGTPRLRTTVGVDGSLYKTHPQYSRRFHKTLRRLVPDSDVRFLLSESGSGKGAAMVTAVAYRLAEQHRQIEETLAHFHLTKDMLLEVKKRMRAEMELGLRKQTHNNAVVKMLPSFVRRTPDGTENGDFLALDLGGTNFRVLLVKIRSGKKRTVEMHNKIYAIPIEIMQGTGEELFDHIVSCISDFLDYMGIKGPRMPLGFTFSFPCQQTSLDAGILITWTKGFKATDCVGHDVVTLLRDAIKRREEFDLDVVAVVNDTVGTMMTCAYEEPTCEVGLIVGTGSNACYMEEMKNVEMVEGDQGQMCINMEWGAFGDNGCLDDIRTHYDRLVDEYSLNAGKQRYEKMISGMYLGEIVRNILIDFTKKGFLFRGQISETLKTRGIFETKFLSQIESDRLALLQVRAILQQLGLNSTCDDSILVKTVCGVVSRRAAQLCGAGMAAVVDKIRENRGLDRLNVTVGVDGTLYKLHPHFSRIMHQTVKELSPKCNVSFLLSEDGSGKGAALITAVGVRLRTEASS
structure (smiles),measurement,setting,value
CC/C=C\CC1C(=O)CCC1CC(=O)Oc1cccc2cccnc12 (centres unmarked) [Formula C],pIC50,Head & Neck HNXF 908,5.41
same,pIC50,[1],5.63
same,pIC50,[2],6.08
same,pIC50,Breast MAXF 1322,5.81
same,pIC50,"[3]; clonogenic assay in soft agar, read-out: relative IC50, colony formation",5.91
same,pIC50,"[3]; clonogenic assay, concentration at T/C=50%, read-out: absolute IC50, colony formation",5.92
same,test concentration from which pronounced effects were observed,"[3]; clonogenic assay, cell lines",≥ 3 µM
same,pIC50,Breast MAXF 857,5.81
same,pIC50,[4],5.81
same,pIC50,[5],5.64
same,skin irritation,[6],did not cause any irritation
same,pIC50,[7],5.82
same,pIC50,[8],5.72
same,effect on the VDAC1/HK1 complex,VDAC1/HK1 complex,no effect
